Measurements as given in patent US12011447B2, “Pharmaceutical composition for treating thyroid cancer comprising tyrosine kinase activity inhibitor as active ingredient” (Kyungpook National University Industry-Academic Cooperation …, priority 2017, dated 2024).
“Also recorded” adds a separate entry of the source.

Experiments:
p-ERK = assay: Western blot of phosphorylated ERK; assay type: cell-based, human; settings: 8505C-PNIS-PCMV cells
Procedure: 8505C-PNIS-PCMV cells were treated with TKI-0266 and incubated for 24 hours, and then the cell pellet was washed twice with cold phosphate-buffered saline (hereinafter referred to as PBS). An RIPA buffer (Thermo Fisher Scientific, USA) containing a protease/phosphatase cocktail inhibitor kit (Thermo Fisher Scientific) was added to the cell pellet to lyse the cells. The lysed cells were gently vortexed three times at a time interval, and centrifuged at 13000xg at 4° C. to isolate a soluble protein. The isolated protein was quantified using a BCA protein assay kit (Thermo Fisher Scientific).
Equal amounts of proteins were separated by 10% SDS-PAGE (sodium dodecyl sulfate-polyacrylamide gel electrophoresis), and then the proteins were transferred to PVDF membranes (Millipore, USA). The PVDF membrane was blocked with 3% BSA (bovine serum albumin) in TBS containing Tween-20 (TBS-T) for 1 hour, and incubated with primary antibodies in 0.5% BSA overnight at 4° C. The next day, the PVDF membrane was incubated with HRP-conjugated secondary antibodies at room temperature for 1 hour, and washed three times with TBS-T. The protein bands were visualized using ECL detection reagent (GE Healthcare Life Sciences, Italy) and the Fusion FX chemiluminescence analyzer system (Vilber lourmat, France). […]

[1] = tested on: anaplastic thyroid cancer xenograft (8505C-PNIS-PCMV); assay: In vivo 99mTc-pertechnetate gamma camera imaging; set-up: species or system Balb/c nude mice; settings: for 99mTc-pertechnetate uptake (tumor ROI normalized to background), FIG. 16B: 50 mg/kg
Procedure: (§1) Female Balb/c nude mice, 5.5-week old with an average weight of 18.9±0.37 g (mean±standard deviation [SD]), were purchased (Hamamatsu, Shizuoka, Japan). The mice were acclimated under specific pathogen-free conditions for one week before starting the experiment, and were maintained at a temperature of 20 to 25° C. and a relative humidity of 40 to 70%. To establish anaplastic thyroid cancer xenograft mouse models, 8505C-PNIS-PCMV s (5×10^6) were mixed with Matrigel (Corning) at a ratio of 1:1 and injected subcutaneously into the right flank region of each mouse.
When the injected 8505C-PNIS-PCMV cells grew to a size of about 50 mm^3, the mice were divided into two groups (n=5): a vehicle group; and a TKI-0266-administered group (50 mg/kg) injected with TKI-0266 by intraperitoneal injection every day for 5 days. To acquire gamma-camera images, 18.5 to 22.2 MBq ^99mTc-pertechnetate was administered to all the mice by intravenous injection. Whole body pinhole gamma camera imaging using a 2-mm pinhole collimator was acquired by infinia II gamma camera (GE Healthcare, USA). During the experiment, the mice were maintained under anesthesia with isoflurane (Forane, ChoongWae Co., Ltd., Korea). In order to estimate the count value, quantitative analysis was performed by quantifying the regions of interest (hereinafter referred to as ROI) in the mouse tumor region. Finally, in order to confirm the pertechnetate absorbed into the tumor, normalization was performed with a background activity ROI of the same size in the mouse head region.

[2] = tested on: anaplastic thyroid cancer xenograft (8505C-PNIS-PCMV); assay: In vivo bioluminescence imaging of F-luc2 (NIS expression); set-up: species or system Balb/c nude mice; settings: 50 mg/kg every day for 5 days, D-luciferin
Procedure: as §1
In order to examine whether the expression of NIS would be increased by TKI-0266, mice for use in the experiment were divided into two groups (n=5): the vehicle group; and the TKI-0266-administered group (50 mg/kg). 50 mg/kg of TKI-0266 was administered intravenously to the established anaplastic thyroid cancer xenograft mice every day for 5 days. On day 0 (before administration of TKI-0266) and day 6 after the start of administration of TKI-0266, to measure the R-luc signal with IVIS Lumina III, h-coelenterazine (15 μg/ml) was administered to the mice by intravenous injection. Next, D-luciferin (150 μg/ml) was administered intraperitoneally to the mice, and the bioluminescence image (hereinafter referred to as BLI) was acquired.

Cc1cc2c(N(C)C3CCCCC3)ncnc2s1 [TKI-0266]
level of phosphorylated ERK (p-ERK) protein (p-ERK): significantly decreased
99mTc-pertechnetate accumulation in the cancer cells (radioisotope uptake) ([1]; 50 mg/kg every day for 5 days): significantly increased; also recorded: the best
99mTc-pertechnetate uptake (tumor ROI normalized to background), FIG. 16B ([1]; day 0): 0.852±0.210
99mTc-pertechnetate uptake (tumor ROI normalized to background), FIG. 16B ([1]; day 6): 1.21±0.24
activity of F-luc2 in vivo (NIS expression) [2]: significantly increased
